Common to all, as to assay type: cell-based
In one assay the test system is A431 (EGFR-WT). Kind of assay: Cell proliferation assay (CellTiter-Glo), A431 cells. Conditions: Homo sapiens, A-431, 72 hrs, CTG assay, * = average of multiple measurements. The gist of the method:
(§1)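 Cells seeded overnight, then treated in triplicate with 9 concentrations (3.16-fold dilutions; 0.1% DMSO final) for 72 h at 37 °C, 5% CO2. Viability by CellTiter-Glo luminescence, normalised to cell and medium controls; IC50 (nM) from nonlinear sigmoidal fit.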
(ATP-based viability assays read luminescence as a measure of living cells.)

Assay [1] has as its target Ba/F3 EGFR-D770-N771ins_SVD (Homo sapiens, UniProt P00533, DUP768-770, cells depend on it). In words: Cell proliferation assay (CellTiter-Glo), Ba/F3 EGFR-D770-N771ins_SVD cells. Particulars: 72 hrs, CTG assay, * = average of multiple measurements, read-out: Ba/F3 EGFR-D770-N771ins_SVD (nM), IC50 of cell proliferation. The method in brief:
as §1

The target of assay [2] is Ba/F3 EGFR-V769_D770insASV (Homo sapiens, UniProt P00533, DUP767-769, cells depend on it). Kind of assay: Cell proliferation assay (CellTiter-Glo), Ba/F3 EGFR-V769_D770insASV cells. Conditions: 72 hrs, CTG assay, * = average of multiple measurements, read-out: Ba/F3 EGFR-V769_D770insASV (nM), IC50 of cell proliferation. The gist of the method:
as §1

Chain of Ba/F3 EGFR-D770-N771ins_SVD (P00533 with tags, fused parts or gaps DUP768-770): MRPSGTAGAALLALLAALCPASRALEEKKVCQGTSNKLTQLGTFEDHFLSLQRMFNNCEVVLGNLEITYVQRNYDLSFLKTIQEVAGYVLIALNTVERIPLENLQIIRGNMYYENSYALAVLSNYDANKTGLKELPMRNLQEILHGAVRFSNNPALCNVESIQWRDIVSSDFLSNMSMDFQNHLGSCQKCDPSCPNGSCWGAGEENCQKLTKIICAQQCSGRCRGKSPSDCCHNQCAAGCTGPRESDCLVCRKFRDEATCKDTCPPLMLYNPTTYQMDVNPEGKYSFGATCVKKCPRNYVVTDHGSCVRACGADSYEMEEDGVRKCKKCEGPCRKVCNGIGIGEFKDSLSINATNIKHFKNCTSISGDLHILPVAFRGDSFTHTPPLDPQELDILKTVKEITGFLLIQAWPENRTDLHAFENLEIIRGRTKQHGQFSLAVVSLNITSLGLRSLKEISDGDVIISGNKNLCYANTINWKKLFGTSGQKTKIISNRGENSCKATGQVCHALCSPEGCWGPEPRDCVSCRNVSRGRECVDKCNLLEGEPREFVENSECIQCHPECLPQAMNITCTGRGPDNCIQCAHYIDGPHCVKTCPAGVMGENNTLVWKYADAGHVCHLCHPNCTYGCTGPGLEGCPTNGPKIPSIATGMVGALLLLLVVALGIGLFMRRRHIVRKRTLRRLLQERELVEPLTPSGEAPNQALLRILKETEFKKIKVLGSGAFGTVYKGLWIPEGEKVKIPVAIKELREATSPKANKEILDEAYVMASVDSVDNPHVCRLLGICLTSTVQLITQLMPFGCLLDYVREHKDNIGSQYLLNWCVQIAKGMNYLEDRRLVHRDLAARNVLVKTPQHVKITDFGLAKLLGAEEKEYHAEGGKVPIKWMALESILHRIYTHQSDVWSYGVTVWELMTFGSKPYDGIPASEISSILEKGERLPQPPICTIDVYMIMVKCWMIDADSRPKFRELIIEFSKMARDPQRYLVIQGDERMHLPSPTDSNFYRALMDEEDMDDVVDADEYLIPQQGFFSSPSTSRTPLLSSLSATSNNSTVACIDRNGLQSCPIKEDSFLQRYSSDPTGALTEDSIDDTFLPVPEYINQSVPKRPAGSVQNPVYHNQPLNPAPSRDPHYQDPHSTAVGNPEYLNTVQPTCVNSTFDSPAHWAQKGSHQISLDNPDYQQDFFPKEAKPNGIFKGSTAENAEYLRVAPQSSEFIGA
Chain of Ba/F3 EGFR-V769_D770insASV (P00533 with tags, fused parts or gaps DUP767-769): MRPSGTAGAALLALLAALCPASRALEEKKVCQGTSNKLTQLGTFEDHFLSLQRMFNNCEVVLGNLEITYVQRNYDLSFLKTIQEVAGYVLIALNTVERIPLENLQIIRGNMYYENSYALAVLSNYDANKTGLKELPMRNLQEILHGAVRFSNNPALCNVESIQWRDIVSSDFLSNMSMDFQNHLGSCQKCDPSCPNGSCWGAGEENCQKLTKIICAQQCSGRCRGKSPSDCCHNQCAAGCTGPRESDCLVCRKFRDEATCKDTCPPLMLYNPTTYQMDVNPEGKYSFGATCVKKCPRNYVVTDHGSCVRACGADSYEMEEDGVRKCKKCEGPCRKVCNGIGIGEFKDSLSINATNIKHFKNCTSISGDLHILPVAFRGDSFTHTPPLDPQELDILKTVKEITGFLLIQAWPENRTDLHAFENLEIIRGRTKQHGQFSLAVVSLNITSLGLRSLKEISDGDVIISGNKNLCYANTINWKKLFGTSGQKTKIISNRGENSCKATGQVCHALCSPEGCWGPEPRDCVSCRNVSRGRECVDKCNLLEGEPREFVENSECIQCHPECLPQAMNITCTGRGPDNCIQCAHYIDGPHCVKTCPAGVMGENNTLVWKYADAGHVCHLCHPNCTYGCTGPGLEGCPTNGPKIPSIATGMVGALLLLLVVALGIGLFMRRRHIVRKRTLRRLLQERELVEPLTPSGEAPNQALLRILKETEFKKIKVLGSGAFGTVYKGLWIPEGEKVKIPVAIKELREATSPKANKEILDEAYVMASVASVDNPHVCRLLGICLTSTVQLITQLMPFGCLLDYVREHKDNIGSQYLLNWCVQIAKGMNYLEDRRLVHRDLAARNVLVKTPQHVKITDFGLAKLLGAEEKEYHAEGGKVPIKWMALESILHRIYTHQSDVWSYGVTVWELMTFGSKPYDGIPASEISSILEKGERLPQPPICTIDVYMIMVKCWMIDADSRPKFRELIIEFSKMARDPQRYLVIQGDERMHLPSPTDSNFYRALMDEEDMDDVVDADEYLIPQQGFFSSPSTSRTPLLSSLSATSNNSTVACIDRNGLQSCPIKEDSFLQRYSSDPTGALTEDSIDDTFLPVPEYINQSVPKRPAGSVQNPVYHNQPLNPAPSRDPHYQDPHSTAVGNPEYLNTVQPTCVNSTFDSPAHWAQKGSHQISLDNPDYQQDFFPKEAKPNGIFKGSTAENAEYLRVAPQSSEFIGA

With `C=CC(=O)Nc1cc(Nc2ncnc(N3CC4(CCC4)c4nc(C)ccc43)n2)c(OC)cc1N(C)CCN(C)C` [Example 61, N-(2-((2-(dimethylamino)ethyl) (methyl)amino)-4-methoxy-5-((4-(5′-methylspiro[cyclobutane-1,3′-pyrrolo[3,2-b]pyridin]-1′(2′H)-yl)-1,3,5-triazin-2-yl)amino)phenyl) acrylamide], the IC50 (as a rule, the concentration that inhibits the measured activity by half) in the assay on A431 (EGFR-WT) turned out to be 18.7 nM. Besides, the GI50 in assay [1] was 14.1 nM; in assay [2], 46.4 nM.

Take `C=CC(=O)Nc1cc(Nc2nccc(N3CC4(CCC4)c4ncccc43)n2)c(OC(F)F)cc1N(C)CCN(C)C` [Example 62, N-(4-(difluoromethoxy)-2-((2-(dimethylamino)ethyl)(methyl)amino)-5-((4-(spiro[cyclobutane-1,3′-pyrrolo[3,2-b]pyridin]-1′(2′H)-yl)pyrimidin-2-yl)amino)phenyl) acrylamide]: in the assay with A431 (EGFR-WT), the IC50 stood at 582 nM. Further, the GI50 was 21.7 nM in assay [1] and 36.3 nM in assay [2].

For the molecule `C=CC(=O)Nc1cc(Nc2nccc(N3CC4(CCC4)c4ncccc43)n2)c(OC)cc1N(C)CCN(C)C` [Example 63, N-(2-((2-(dimethylamino)ethyl) (methyl)amino)-4-methoxy-5-((4-(spiro[cyclobutane-1,3′-pyrrolo [3,2-b]pyridin]-1′(2′H)-yl)pyrimidin-2-yl)amino)phenyl)acrylamide], in the assay on A431 (EGFR-WT), the 50% inhibitory concentration (IC50) is 532 nM. In addition, the GI50 in assay [1] was found to be 39.6 nM; in assay [2], 116 nM.

As for `C=CC(=O)Nc1cc(Nc2nccc(N3CC4(CCC4)c4nc(C)ccc43)n2)c(OC(F)F)cc1N(C)CCN(C)C` [Example 64, N-(4-(difluoromethoxy)-2-((2-(dimethylamino)ethyl)(methyl)amino)-5-((4-(5′-methylspiro[cyclo-butane-1,3′-pyrrolo[3,2-b]pyridin]-1′(2′H)-yl)pyrimidin-2-yl)amino)phenyl)acrylamide], in the assay with A431 (EGFR-WT), half-maximal inhibition (IC50) required 494 nM. For the same molecule, the GI50 in assay [1] amounted to 17.1 nM; in assay [2], 31.9 nM.

For the molecule `C#Cc1ccc2c(n1)C(C)(C)CN2c1ccnc(Nc2cc(NC(=O)C=C)c(N(C)CCN(C)C)cc2OC(F)F)n1` [Example 68, N-(4-(difluoromethoxy)-2-((2-(dimethylamino)ethyl)(methyl)ami-no)-5-((4-(5-ethynyl-3,3-dimeth-yl-2,3-dihydro-1H-pyrrolo[3,2-b]pyridin-1-yl)pyrimidin-2-yl)amino)phenyl)acrylamide], in the assay with A431 (EGFR-WT), the IC50 was found to be 673 nM. The results for the GI50 in assay [1] and in assay [2] were 6.5 nM and 17.1 nM, respectively.

`C=CC(=O)Nc1cc(Nc2nccc(N3CC(C)(C)c4nc(C5CC5)ccc43)n2)c(OC)nc1N(C)CCN(C)C` [Example 69, N-(5-((4-(5-cyclopropyl-3,3-dimethyl-2,3-dihydro-1H-pyrrolo [3,2-b]pyridin-1-yl)pyrimidin-2-yl)amino)-2-((2-(dimethylamino)ethyl) (methyl)amino)-6-methoxypyridin-3-yl)acrylamide] registered an IC50 in the assay on A431 (EGFR-WT) of 317 nM. Also, the GI50 in assay [1] amounted to 24.8 nM; in assay [2] it was 53.7 nM.

The values are drawn from patent publication US20240109885A1, “2,3-DIHYDRO-1H-PYRROLO[3,2-B]PYRIDINE DERIVATIVE, PREPARATION METHOD THEREFOR, AND APPLICATION THEREOF” (Abbisko Therapeutics Co., Ltd, priority 2020, published 2024).
